{"source": "patent US11602514B2", "about": "“Medicament having anti-inflammatory bowel disease function, and preparation method therefor and application thereof” (SUZHOU PHARMAVAN CO., LTD, priority 2018, dated 2023)", "tested_on": "PGE2 secreted by mouse macrophages RAW264.7 induced by LPS", "assay": "PGE2 secreted by LPS-induced RAW264.7 macrophages (ELISA)", "type": "cell-based", "conditions": "for PGE2: LPS alone 1154.90 ± 84.20, control −407.37 ± 57.67", "method": "Effects of myricanol derivatives on the expression of inflammatory factors such as IL-6, TNF-α, PEG2 secreted by a mouse macrophage cell strain RAW 264.7 induced by bacterial lipopolysaccharide (hereinafter referred to as LPS) stimulus: A pre-prepared cell suspension was inoculated in a 96-well plate at 15000 cells/well and 100 μl/well and cultured overnight in an incubator with 5% CO2 at 37° C. At 80% cell confluence, the original culture medium was discarded, and each well was added with 100 μl of prepared drug solution to be tested with a different concentration, cultured for 1 h, and then added with a LPS solution, where the final concentration of LPS in the culture system was 100 ng/mL. Each concentration was set with 3 parallel wells, and a cell control group (no drug and no solvent) and a blank medium control group (no cells, a well for zero adjustment) were set. They were cultured for another 24 h. Cell culture supernatants were aspirated, and an R&D ELISA detection kit (M6000B; MTA00B; VAL601) was used for detecting the expression of the inflammatory factors such as IL-6, TNF-α, and PEG2 in each group. Cell proteins were collected, and a […] method was used for detecting COX-2 protein expression in each group.", "note": "Entries after “also recorded” stand apart in the source; their conditions may differ.", "data": [{"smiles": "COc1c2cc(c(O)c1OC)CCCCC(OS(=O)(=O)O)CCc1ccc(O)c-2c1", "note": "(stereo not drawn) [compound H, 11-sulfonyloxy myricanol]", "values": [{"measurement": "dose dependence of the activity for inhibiting PGE2", "setting": "FIG. 9", "value": "well dose-dependent"}, {"measurement": "inhibition of PGE2 secreted by RAW264.7 induced by LPS", "setting": "LPS 100 ng/mL, 24 h, FIGS. 7 and 9", "value": "significant effect of inhibiting PGE2; also recorded: strong ability to inhibit"}, {"measurement": "PGE2", "setting": "LPS + 10 μM", "value": "804.30 ± 18.46", "unit": "pg/mL"}, {"measurement": "PGE2", "setting": "LPS + 20 μM", "value": "604.66 ± 97.52", "unit": "pg/mL"}, {"measurement": "PGE2", "setting": "LPS + 30 μM", "value": "448.16 ± 55.26", "unit": "pg/mL"}, {"measurement": "PGE2", "setting": "LPS + 40 μM", "value": "289.30 ± 109.41", "unit": "pg/mL"}, {"measurement": "PGE2", "setting": "LPS + 60 μM", "value": "-82.01 ± 357.30", "unit": "pg/mL"}, {"measurement": "PGE2", "setting": "LPS + 80 μM", "value": "-338.14 ± 138.40", "unit": "pg/mL"}, {"measurement": "PGE2 inhibition compared with myricanol", "setting": "dose of 20 μM, FIG. 9", "value": "better inhabitation effect than myricanol"}]}]}
